Measured values taken from US12281122B1, “PI3K inhibitors” (Cogent Biosciences, Inc., priority 2023, dated 2025).
pIC50: −log10 of the molar value.

Assays:
[1] = system: T47D (PI3Kα-H1047R) cell line; assay: HTRF phospho-AKT(S473) cell assay in T47D cells; assay type: cell-based, human; conditions: Homo sapiens; T47D (PI3Kα-H1047R) cells, HTRF phospho-AKT(S473), 2 hours compound incubation
How it was run: (§1)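 T47D (PI3Kα-H1047R; RPMI, 10% FBS, insulin) and SKBR3 (wild-type PI3Kα; McCoy's 5A, 10% FBS) cells treated 2 h at 37 °C with 12-point 1:3 dilutions, top 5 μM and 10 μM respectively, ≤0.5% DMSO. SKBR3 stimulated with 70 ng/ml PDGF-BB for the last 15 min; lysate pAKT(S473) by HTRF, IC50 from curves.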

[2] = system: SKBR3 (PI3Kα-Wild Type) cell line; assay: HTRF phospho-AKT(S473) cell assay in SKBR3 cells; assay type: cell-based, human; conditions: Homo sapiens, SK-BR-3; SKBR3 (PI3Kα-Wild Type) cells, HTRF phospho-AKT(S473), 2 hours compound incubation, PDGF-BB stimulated
How it was run: as §1

Row | pIC50 [1] | pIC50 [2] | SMILES
1 | > 6.60 | 5.30 to 6.00 | Cc1cc([C@@H](C)Nc2ccc(Cl)nc2C(=O)NS(C)(=O)=O)c2nc(N3CC[C@H](Oc4cnn(C)c4)C3)n(C)c(=O)c2c1 [Compound 331, 6-chloro-3-(((R)-1-(3,6-dimethyl-2-((S)-3-((1-methyl-1H-pyrazol-4-yl)oxy)pyrrolidin-1-yl)-4-oxo-3,4-dihydroquinazolin-8-yl)ethyl)amino)-N-(methylsulfonyl) picolinamide]
2 | > 6.60 | 5.30 to 6.00 | Cc1cc([C@@H](C)Nc2ccc(Cl)nc2C(=O)NS(C)(=O)=O)c2nc(N3CCc4nocc4C3)n(C)c(=O)c2c1 [Compound 332, (R)-6-chloro-3-((1-(2-(6,7-dihydroisoxazolo[4,3-c]pyridin-5(4H)-yl)-3,6-dimethyl-4-oxo-3,4-dihydroquinazolin-8-yl)ethyl)amino)-N-(methylsulfonyl) picolinamide]
3 | > 6.60 | 5.30 to 6.00 | Cc1cc([C@@H](C)Nc2ccc(Cl)nc2C(=O)NS(C)(=O)=O)c2nc(-c3ccc(O[C@@H]4CCNCC4(F)F)nc3)n(C)c(=O)c2c1 [Compound 333, 6-chloro-3-(((R)-1-(2-(6-(((R)-3,3-difluoropiperidin-4-yl)oxy)pyridin-3-yl)-3,6-dimethyl-4-oxo-3,4-dihydroquinazolin-8-yl)ethyl)amino)-N-(methylsulfonyl) picolinamide]
4 | > 6.60 | 5.30 to 6.00 | Cc1cc([C@@H](C)Nc2ccc(Cl)nc2C(=O)NS(C)(=O)=O)c2nc(N3CCc4nn(C5COC5)cc4C3)n(C)c(=O)c2c1 [Compound 334, (R)-6-chloro-3-((1-(3,6-dimethyl-2-(2-(oxetan-3-yl)-2,4,6,7-tetrahydro-5H-pyrazolo[4,3-c]pyridin-5-yl)-4-oxo-3,4-dihydroquinazolin-8-yl)ethyl)amino)-N-(methylsulfonyl) picolinamide]
5 | > 6.60 | 5.30 to 6.00 | Cc1cc([C@@H](C)Nc2ccc(Cl)nc2C(=O)NS(C)(=O)=O)c2nc(N3CCc4c(cnn4C4COC4)C3)n(C)c(=O)c2c1 [Compound 335, (R)-6-chloro-3-((1-(3,6-dimethyl-2-(1-(oxetan-3-yl)-1,4,6,7-tetrahydro-5H-pyrazolo[4,3-c]pyridin-5-yl)-4-oxo-3,4-dihydroquinazolin-8-yl)ethyl)amino)-N-(methylsulfonyl) picolinamide]
6 | > 6.60 | 5.30 to 6.00 | Cc1cc([C@@H](C)Nc2ccc(Cl)nc2C(=O)NS(C)(=O)=O)c2nc(N3C[C@@H]4[C@H](C3)[C@H]4c3cnn(C)c3)n(C)c(=O)c2c1 [Compound 336, 6-chloro-3-(((R)-1-(3,6-dimethyl-2-((1R,5S,6S)-6-(1-methyl-1H-pyrazol-4-yl)-3-azabicyclo[3.1.0]hexan-3-yl)-4-oxo-3,4-dihydroquinazolin-8-yl)ethyl)amino)-N-(methylsulfonyl) picolinamide]
7 | > 6.60 | 5.30 to 6.00 | Cc1cc([C@@H](C)Nc2ccc(Cl)nc2C(=O)NS(C)(=O)=O)c2nc(N3CCC(c4cc(N)n(C)n4)CC3)n(C)c(=O)c2c1 [Compound 338, (R)-3-((1-(2-(4-(5-amino-1-methyl-1H-pyrazol-3-yl)piperidin-1-yl)-3,6-dimethyl-4-oxo-3,4-dihydroquinazolin-8-yl)ethyl)amino)-6-chloro-N-(methylsulfonyl) picolinamide]

The next lines start with the compound.

Row | SMILES | pIC50 [1] | pIC50 [2]
8 | Cc1cc([C@@H](C)Nc2ccc(Cl)nc2C(=O)NS(C)(=O)=O)c2nc(N3CC[C@@H](Oc4cnn(C)c4)C3)n(C)c(=O)c2c1 [Compound 320, 6-chloro-3-(((R)-1-(3,6-dimethyl-2-((R)-3-((1-methyl-1H-pyrazol-4-yl)oxy)pyrrolidin-1-yl)-4-oxo-3,4-dihydroquinazolin-8-yl)ethyl)amino)-N-(methylsulfonyl) picolinamide] | > 6.60 | 5.30 to 6.00
9 | Cc1cc([C@@H](C)Nc2ccc(Cl)nc2C(=O)NS(C)(=O)=O)c2nc(N3C[C@H]4C[C@@H](c5cnn(C)c5)[C@@H]3C4)n(C)c(=O)c2c1 [Compound 321, 6-chloro-3-(((R)-1-(3,6-dimethyl-2-((1S,4S,6RS)-6-(1-methyl-1H-pyrazol-4-yl)-2-azabicyclo[2.2.1]heptan-2-yl)-4-oxo-3,4-dihydroquinazolin-8-yl)ethyl)amino)-N-(methylsulfonyl) picolinamide] | 6.30 to 6.60 | 5.30 to 6.00
10 | COc1cc(C2CCN(c3nc4c([C@@H](C)Nc5ccc(Cl)nc5C(=O)NS(C)(=O)=O)cc(C)cc4c(=O)n3C)CC2)n(C)n1 [Compound 325, (R)-6-chloro-3-((1-(2-(4-(3-methoxy-1-methyl-1H-pyrazol-5-yl)piperidin-1-yl)-3,6-dimethyl-4-oxo-3,4-dihydroquinazolin-8-yl)ethyl)amino)-N-(methylsulfonyl) picolinamide] | > 6.60 | 5.30 to 6.00
11 | COc1ccccc1-n1ncc2c1CN(c1nc3c([C@@H](C)Nc4ccc(Cl)nc4C(=O)NS(C)(=O)=O)cc(C)cc3c(=O)n1C)C2 [Compound 326, (R)-6-chloro-3-((1-(2-(1-(2-methoxyphenyl)-4,6-dihydropyrrolo[3,4-c]pyrazol-5(1H)-yl)-3,6-dimethyl-4-oxo-3,4-dihydroquinazolin-8-yl)ethyl)amino)-N-(methylsulfonyl) picolinamide] | > 6.60 | 5.30 to 6.00
12 | COc1cccnc1-n1cc2c(n1)CN(c1nc3c([C@@H](C)Nc4ccc(Cl)nc4C(=O)NS(C)(=O)=O)cc(C)cc3c(=O)n1C)C2 [Compound 327, (R)-6-chloro-3-((1-(2-(2-(3-methoxypyridin-2-yl)-2,6-dihydropyrrolo[3,4-c]pyrazol-5(4H)-yl)-3,6-dimethyl-4-oxo-3,4-dihydroquinazolin-8-yl)ethyl)amino)-N-(methylsulfonyl) picolinamide] | 6.30 to 6.60 | 5.30 to 6.00
13 | Cc1cc([C@@H](C)Nc2ccc(Cl)nc2C(=O)NS(C)(=O)=O)c2nc(N3CCC4(CCCCOC4)CC3)n(C)c(=O)c2c1 [Compound 328, (R)-6-chloro-3-((1-(3,6-dimethyl-4-oxo-2-(8-oxa-3-azaspiro[5.6]dodecan-3-yl)-3,4-dihydroquinazolin-8-yl)ethyl)amino)-N-(methylsulfonyl) picolinamide] | 6.30 to 6.60 | ≤ 5.30
14 | Cc1cc([C@@H](C)Nc2ccc(Cl)nc2C(=O)NS(C)(=O)=O)c2nc(N3CC[C@@H](Oc4cnn(CC(F)(F)F)c4)C3)n(C)c(=O)c2c1 [Compound 329, 6-chloro-3-(((R)-1-(3,6-dimethyl-4-oxo-2-((R)-3-((1-(2,2,2-trifluoroethyl)-1H-pyrazol-4-yl)oxy)pyrrolidin-1-yl)-3,4-dihydroquinazolin-8-yl)ethyl)amino)-N-(methylsulfonyl) picolinamide] | > 6.60 | 5.30 to 6.00
15 | Cc1cc([C@@H](C)Nc2ccc(Cl)nc2C(=O)NS(C)(=O)=O)c2nc(N3CC[C@H](Oc4cnn(CC(F)(F)F)c4)C3)n(C)c(=O)c2c1 [Compound 330, 6-chloro-3-(((R)-1-(3,6-dimethyl-4-oxo-2-((S)-3-((1-(2,2,2-trifluoroethyl)-1H-pyrazol-4-yl)oxy)pyrrolidin-1-yl)-3,4-dihydroquinazolin-8-yl)ethyl)amino)-N-(methylsulfonyl) picolinamide] | > 6.60 | 5.30 to 6.00
